Data taken from paper PMC12646670, “Fatty acid transport protein 2 inhibition enhances glucose tolerance through α cell–mediated GLP-1 secretion” (The Journal of Clinical Investigation, 2025).

Molecular target: T1, FATP2 (Mus musculus, UniProt O35488)
T1 construct: gene Slc27a2; endogenous full-length FATP2 in native mouse αTC1-6 pancreatic α cell line (ATCC)
Test: BODIPY-labelled C18 fatty acid uptake (QBT fluorescence assay)
Type: cell-based
Conditions: native αTC1-6 cells; 1 h preincubation, 37°C; 2.5 μM BODIPY-C18 fatty acid with 0.2% fatty acid-free albumin; uptake read at 60 s
Source text: BODIPY-labelled C18 fatty acid uptake (QBT fluorescence assay) on FATP2 | fatty acid uptake was blocked by the FATP2 inhibitor lipofermata

T1 sequence (O35488 whole entry): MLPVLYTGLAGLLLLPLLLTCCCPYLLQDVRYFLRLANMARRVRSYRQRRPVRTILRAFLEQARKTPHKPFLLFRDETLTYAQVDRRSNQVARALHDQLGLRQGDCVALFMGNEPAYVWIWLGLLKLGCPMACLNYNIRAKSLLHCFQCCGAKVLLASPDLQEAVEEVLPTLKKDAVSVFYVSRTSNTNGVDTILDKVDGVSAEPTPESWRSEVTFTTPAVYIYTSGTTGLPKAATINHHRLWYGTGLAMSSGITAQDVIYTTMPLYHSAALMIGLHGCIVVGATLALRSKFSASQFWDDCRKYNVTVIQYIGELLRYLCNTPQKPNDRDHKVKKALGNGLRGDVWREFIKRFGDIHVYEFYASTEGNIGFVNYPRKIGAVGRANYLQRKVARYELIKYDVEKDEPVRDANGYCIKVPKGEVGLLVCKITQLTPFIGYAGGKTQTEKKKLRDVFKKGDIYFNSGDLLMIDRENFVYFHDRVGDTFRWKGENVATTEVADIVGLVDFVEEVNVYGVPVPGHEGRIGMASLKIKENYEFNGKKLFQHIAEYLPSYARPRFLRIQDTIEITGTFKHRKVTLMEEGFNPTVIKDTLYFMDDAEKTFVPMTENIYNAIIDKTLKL

For O=C1Nc2ccc(Br)cc2C12NN=C(c1ccccc1)S2 (stereo not shown) [lipofermata, 5-bromo-5′-phenylspiro[3H-1,3,4-thiadiazole-2,3′-indoline]-2-1], the IC50 was 5.4 µM.
